# Measurements from patent US20240100075A1, “Synthetic Compositions Comprising LNFP III and LSTa” (FrieslandCampina Nederland B.V., priority 2020, published 2024).
# Assays:
# Format in all cases: cell-based, human
# Interleukin-10 (IL-10) = assay: Cytokine analysis (Cytometric Bead Array) in PBMC supernatant, IL-10; conditions: for effect on the expression of IL10 (summary statement): PBMC, single HMOs and total pool of HMO, method not given
# Method: BD™ Cytometric Bead Array (CBA) Human Th1/Th2/Th17 Cytokine Kit (560484, BD) was used to measure Interleukin-6 (IL-6) and Interleukin-10 (IL-10) protein levels in supernatant following the manufacturer's instructions. After acquiring samples on the FACS (Easycyte 8HT), the FCAP Array™ software was used to determine cytokine concentrations.
# PBMC's from 3 donors were isolated from a buffy coat using Sepmate tubes. The cells were diluted to a concentration of 1*10^7 cells per ml. The PBMC's were seeded in 6 wells plates and treated with 0.5 g/l of 2′-FL or a mix of LNFP-III with LSTa 1:1 w/v in PBMC culturing medium for 24 h. Cells incubated with no HMOs were used as control. The supernatants from these cultures were collected and BD™ Cytometric Bead Array (CBA) Human Th1/Th2/Th17 Cytokine Kit (560484, BD) was used to measure Interleukin-6 (IL-6) and Interleukin-10 (IL-10) protein levels in supernatant following the manufacturer's instructions. After acquiring samples on the FACS (Easycyte 8HT), the FCAP Array™ software was used to determine cytokine concentrations.
# Interleukin-6 (IL-6) = assay: Cytokine analysis (Cytometric Bead Array) in PBMC supernatant, IL-6; conditions: PBMCs of 3 donors, 0.5 g/l, 24 h, FIG. 8, compared with control
# Method: BDTM Cytometric Bead Array (CBA) Human Th1/Th2/Th17 Cytokine Kit (560484, BD) was used to measure Interleukin-6 (IL-6) and Interleukin-10 (IL-10) protein levels in supernatant following the manufacturer's instructions. After acquiring samples on the FACS (Easycyte 8HT), the FCAP ArrayTM software was used to determine cytokine concentrations. PBMC's from 3 donors were isolated from a buffy coat using Sepmate tubes. The cells were diluted to a concentration of 1*10^7 cells per ml. The PBMC's were seeded in 6 wells plates and treated with 0.5 g/l of 2'-FL or a mix of […] in PBMC culturing medium for 24 h. Cells incubated with no HMOs were used as control. The supernatants from these cultures were collected and BDTM Cytometric Bead Array (CBA) Human Th1/Th2/Th17 Cytokine Kit (560484, BD) was used to measure Interleukin-6 (IL-6) and Interleukin-10 (IL-10) protein levels in supernatant following the manufacturer's instructions. After acquiring samples on the FACS (Easycyte 8HT), the FCAP ArrayTM software was used to determine cytokine concentrations.
# FoxP3 = assay: Intracellular staining of transcription factors in PBMCs (FACS), FoxP3; conditions: PBMC, single HMOs and total pool of HMO; method not given
# Method: (§1) For intracellular staining PBMCs from 3 donors were incubated with the mentioned HMOs (0.5 g/1) for 24 h prior to analysis. In a 96-wells plate 5*10^5 PBMCs were pelleted at 300 g for 4 minutes. Subsequently, the cells were blocked using 25 μL of blocking buffer (Human BD Fc Block™,BD) and incubated for 10 minutes at room temperature. Then, 25 μL of anti-CD4 FITC (555346, BD) and anti-CD3 APC (555335, BD) were added to each test. The cells were incubated 30 minutes on ice. After the cells were washed twice with Stain Buffer (FBS) (554657, BD) an intracellular staining for the transcription factors was performed by the Transcription Factor Buffer Set (562574, BD). FoxP3 PE (560852, BD) and RORγT PE (563081, BD) were used. Cells were analyzed with FACS (Easycyte 8HT). Expression of FoxP3 and RORγT was analyzed in the CD4-positive cells.
# PBMC's from 3 donors were isolated from a buffy coat using Sepmate tubes. The cells were diluted to a concentration of 1*10^7 cells per ml. The PBMC's were seeded in 6 wells plates and treated with 0.5 g/l of 2′-FL or a mix of LNFP-III with LSTa 1:1 w/v in PBMC culturing medium for 24 h. Cells incubated with no HMOs were used as control. For Fluorescence Activated Cell Sorting (FACS), 5*10^5 PBMCs were pelleted at 300 g for 4 minutes in a 96-well plate.
# as §1, with “Subsequently,” for “For intracellular staining PBMCs from 3 donors were incubated with the mentioned HMOs (0.5 g/1) for 24 h prior to analysis. In a 96-wells plate 5*10^5 PBMCs were pelleted at 300 g for 4 minutes. Subsequently,”, “8HT).” for “8HT). Expression of FoxP3 and RORγT was analyzed in the CD4-positive cells.”
# CD25 (IL2RA) = assay: RNA sequencing in PBMCs, CD25 (IL2RA) gene expression; conditions: PBMCs of 3 donors, 0.5 g/l HMO, 6 h, Polymyxin B as control, FIG. 2
# Method: (§2) Peripheral blood mononuclear cells (PBMCs) were isolated from a buffy coat using Sepmate tubes. The cells were diluted to a concentration of 1*10^7 cells per ml. The PBMC's were seeded in 6 wells plates and treated with 0.5 g/l of each HMO in PBMC culturing medium for 6 h prior to RNA isolation. Each human milk oligosaccharide (HMO) was mixed with 100 ug/ml (microgram/milliliter) final concentration of Polymyxin B to ensure neutralization of possible endotoxin contamination of HMOs, while equal amounts of Polymyxin B were used as a control. As a positive control HMOs isolated from pooled human milk sample were used. Single HMOs were purchased from BOC Sciences.
# (§3) 2500 ng RNA, isolated from PBMCs of 3 donors, was translated into cDNA, using the quantitect reverse transcription kit (Qiagen). RNA sequencing and analysis was performed by use of the NOVOGENE platform according to standard procedures. Gene expression is shown for CSF3, CD25 (IL2RA), IL12B and IL23A as regulated by the pool of HMOs as isolated from human milk (pHMOs), LNFP-III, LSTa and DSLNT.
# as §2, with “PBMC's from 3 donors” for “Peripheral blood mononuclear cells (PBMCs)”, “HMO” for “human milk oligosaccharide (HMO)”, “ug/ml” for “ug/ml (microgram/milliliter)”
# as §3, with “from PBMCs,” for “from PBMCs of 3 donors,”, “expression was” for “expression is”
# IL23A = assay: RNA sequencing in PBMCs, IL23A gene expression; conditions: PBMCs of 3 donors, 0.5 g/l HMO, 6 h, Polymyxin B as control, FIG. 4
# Method: as §2, §3
# (§4) PBMC's from 3 donors were isolated from a buffy coat using Sepmate tubes. The cells were diluted to a concentration of 1*10^7 cells per ml. […]
# (§5) 2500 ng RNA, isolated from PBMCs, was translated into cDNA, using the quantitect reverse transcription kit (Qiagen). […]
# IL12B = assay: RNA sequencing in PBMCs, IL12B gene expression; conditions: PBMCs of 3 donors, 0.5 g/l HMO, 6 h, Polymyxin B as control, FIG. 3
# Method: as §2, §3
# as §2, with “PBMC's from 3 donors” for “Peripheral blood mononuclear cells (PBMCs)”, “HMO” for “human milk oligosaccharide (HMO)”, “ug/ml” for “ug/ml (microgram/milliliter)”
# as §3, with “from PBMCs,” for “from PBMCs of 3 donors,”, “expression was” for “expression is”
# CSF3 = assay: RNA sequencing in PBMCs, CSF3 gene expression; conditions: PBMCs of 3 donors, 0.5 g/l HMO, 6 h, Polymyxin B as control, FIG. 1
# Method: as §2, §3, §4, §5
Compound,effect on the expression of IL10 (summary statement) (Interleukin-10 (IL-10)),"expression of IL10 (protein level in supernatant) (Interleukin-10 (IL-10); PBMCs of 3 donors, 0.5 g/l, 24 h, FIG. 7, mixture value is average)","expression of IL6, result in words (Interleukin-6 (IL-6))",effect on the expression of FoxP3 (summary statement) (FoxP3),expression of CD25 (CD25 (IL2RA)),expression of IL23A (IL23A),expression of IL12B (IL12B),relative expression of CSF3 (CSF3)
"2′-fucosyllactose [2′FL, reference compound]",no effect,less than 3 pg/ml,no expression,no effect,,,,
"CC(=O)N[C@H]1[C@H](O[C@H]2[C@@H](O)[C@@H](CO)O[C@@H](O[C@H]3[C@H](O)[C@@H](O)C(O)O[C@@H]3CO)[C@@H]2O)O[C@H](CO)[C@@H](O)[C@@H]1O[C@@H]1O[C@H](CO)[C@H](O)[C@H](O[C@]2(C(=O)O)C[C@H](O)[C@@H](NC(C)=O)[C@H]([C@H](O)[C@H](O)CO)O2)[C@H]1O (stereo partly drawn) [LSTa, α-Neu5Ac-(2→3)-β-D-Gal-(1→3)-β-D-GlcNAc-(1→3)-β-D-Gal-(1→4)-Glc]",increase,,,increase,around 6.3,about 4.4,about 3,
α-Neu5Ac-(2→3)-β-D-Gal-(1→3)-[α-Neu5Ac-(2→6)]-β-D-GlcNAc-(1→3)-β-D-Gal-(1→4)-Glc [DSLNT],,,,,around 5.5,,about 2.5,around 4
β-D-Gal-(1→4)-[α-L-Fuc-(1→3)]-β-D-GlcNAc-(1→3)-β-D-Gal-(1→4)-D-Glc [LNFP III],increase,,,increase,around 5.8,about 4.3,about 2.5,
